{"source": "ChEMBL document CHEMBL2146478", "about": "“Discovery of potent inhibitors of receptor protein tyrosine phosphatase sigma through the structure-based virtual screening” (Bioorg Med Chem Lett, 2012)", "key": {"[1]": {"molecular_target": "Protein tyrosine phosphatase type IVA 3 (Homo sapiens, UniProt O75365)", "sequence (O75365 whole entry)": "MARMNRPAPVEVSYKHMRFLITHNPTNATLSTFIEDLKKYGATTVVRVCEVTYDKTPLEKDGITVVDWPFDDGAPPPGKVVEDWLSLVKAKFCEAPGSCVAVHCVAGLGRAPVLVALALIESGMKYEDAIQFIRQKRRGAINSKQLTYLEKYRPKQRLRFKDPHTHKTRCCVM", "assay": "Inhibition of PRL3"}, "[2]": {"molecular_target": "T1, Protein tyrosine phosphatase type IVA 1 (Homo sapiens, UniProt Q93096)", "T1 sequence (Q93096 whole entry)": "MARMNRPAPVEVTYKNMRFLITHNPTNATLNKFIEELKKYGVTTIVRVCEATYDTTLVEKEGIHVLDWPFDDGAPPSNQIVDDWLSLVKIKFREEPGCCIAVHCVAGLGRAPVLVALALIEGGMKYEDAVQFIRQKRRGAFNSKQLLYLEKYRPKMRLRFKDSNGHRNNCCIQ", "assay": "Inhibition of PRL1"}, "PTPsigma-(Brain) [3]": {"molecular_target": "T2, PTPsigma-(Brain) (Homo sapiens, UniProt Q9UM81)", "assay": "Inhibition of His-tagged PTPsigma catalytic domain amino acid 1369 to 1948 using DiFMUP as substrate after 20 mins by spectrofluorometric analysis"}, "PTPsigma-(Brain) [4]": {"molecular_target": "T2, PTPsigma-(Brain)", "assay": "Inhibition of His-tagged PTPsigma catalytic domain amino acid 1369 to 1948 using DiFMUP as substrate at 2 uM after 20 mins by spectrofluorometric analysis"}, "[5]": {"molecular_target": "T3, Dual specificity protein phosphatase 4 (Homo sapiens, UniProt Q13115)", "T3 sequence (Q13115 whole entry)": "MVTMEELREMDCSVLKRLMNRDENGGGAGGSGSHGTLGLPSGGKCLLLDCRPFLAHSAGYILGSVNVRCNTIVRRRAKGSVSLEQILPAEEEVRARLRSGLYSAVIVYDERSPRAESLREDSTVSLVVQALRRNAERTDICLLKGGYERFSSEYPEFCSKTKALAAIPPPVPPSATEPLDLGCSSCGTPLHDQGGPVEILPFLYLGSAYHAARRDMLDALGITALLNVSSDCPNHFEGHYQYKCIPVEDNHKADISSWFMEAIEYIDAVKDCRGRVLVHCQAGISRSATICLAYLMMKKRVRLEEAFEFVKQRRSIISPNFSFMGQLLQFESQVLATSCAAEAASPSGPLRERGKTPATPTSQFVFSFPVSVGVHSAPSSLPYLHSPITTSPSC", "assay": "Inhibition of MKP2"}}}
{"smiles": "CC1=CC2=NC(=O)/C(=C/c3ccc(O)c(O)c3)C(=N)N2O1", "values": [{"measurement": "IC50", "setting": "[1]", "value": "> 100", "unit": "µM"}, {"measurement": "IC50", "setting": "[2]", "value": "> 100", "unit": "µM"}, {"measurement": "IC50", "setting": "PTPsigma-(Brain) [3]", "value": 0.7, "unit": "µM"}, {"measurement": "inhibition", "setting": "PTPsigma-(Brain) [4]", "value": "> 50", "unit": "%"}, {"measurement": "IC50", "setting": "[5]", "value": 55.4, "unit": "µM"}]}
{"smiles": "c1ccc2nc(-c3nnc4sc(-c5cnccn5)nn34)ccc2c1", "values": [{"measurement": "IC50", "setting": "[1]", "value": "> 100", "unit": "µM"}, {"measurement": "IC50", "setting": "[2]", "value": 21, "unit": "µM"}, {"measurement": "IC50", "setting": "PTPsigma-(Brain) [3]", "value": 0.1, "unit": "µM"}, {"measurement": "inhibition", "setting": "PTPsigma-(Brain) [4]", "value": "> 50", "unit": "%"}, {"measurement": "IC50", "setting": "[5]", "value": 2.29, "unit": "µM"}]}
{"smiles": "O=c1/c(=C/c2ccc(O)c(O)c2)sc2nc3ccccc3n12", "values": [{"measurement": "IC50", "setting": "[1]", "value": 11, "unit": "µM"}, {"measurement": "IC50", "setting": "[2]", "value": 14, "unit": "µM"}, {"measurement": "IC50", "setting": "PTPsigma-(Brain) [3]", "value": 0.9, "unit": "µM"}, {"measurement": "inhibition", "setting": "PTPsigma-(Brain) [4]", "value": "> 50", "unit": "%"}, {"measurement": "IC50", "setting": "[5]", "value": "> 100", "unit": "µM"}]}
{"smiles": "N=C1/C(=C\\c2ccc(O)c(O)c2)C(=O)N=C2SC(c3ccc(O)cc3)=NN12", "values": [{"measurement": "IC50", "setting": "[1]", "value": 33.2, "unit": "µM"}, {"measurement": "IC50", "setting": "[2]", "value": 39.8, "unit": "µM"}, {"measurement": "IC50", "setting": "PTPsigma-(Brain) [3]", "value": 1.2, "unit": "µM"}, {"measurement": "inhibition", "setting": "PTPsigma-(Brain) [4]", "value": "> 50", "unit": "%"}, {"measurement": "IC50", "setting": "[5]", "value": "> 100", "unit": "µM"}]}
{"smiles": "O=C(CSc1nnc(-c2ccco2)c(-c2ccco2)n1)Nc1ccccc1[N+](=O)[O-]", "values": [{"measurement": "IC50", "setting": "[1]", "value": 57, "unit": "µM"}, {"measurement": "IC50", "setting": "[2]", "value": "> 100", "unit": "µM"}, {"measurement": "IC50", "setting": "PTPsigma-(Brain) [3]", "value": 1.3, "unit": "µM"}, {"measurement": "inhibition", "setting": "PTPsigma-(Brain) [4]", "value": "> 50", "unit": "%"}, {"measurement": "IC50", "setting": "[5]", "value": "> 100", "unit": "µM"}]}
{"smiles": "O=C1NC(=O)/C(=C\\c2cccn2-c2ccc(C(=O)O)cc2)N1", "values": [{"measurement": "IC50", "setting": "[1]", "value": "> 100", "unit": "µM"}, {"measurement": "IC50", "setting": "[2]", "value": "> 100", "unit": "µM"}, {"measurement": "IC50", "setting": "PTPsigma-(Brain) [3]", "value": 0.2, "unit": "µM"}, {"measurement": "inhibition", "setting": "PTPsigma-(Brain) [4]", "value": "> 50", "unit": "%"}, {"measurement": "IC50", "setting": "[5]", "value": "> 100", "unit": "µM"}]}
{"smiles": "O=C1NC(=S)S/C1=C\\c1cn(-c2ccccc2)nc1-c1cccc(OCc2ccccc2Cl)c1", "values": [{"measurement": "IC50", "setting": "[1]", "value": 27.6, "unit": "µM"}, {"measurement": "IC50", "setting": "[2]", "value": 37.2, "unit": "µM"}, {"measurement": "IC50", "setting": "PTPsigma-(Brain) [3]", "value": 0.6, "unit": "µM"}, {"measurement": "inhibition", "setting": "PTPsigma-(Brain) [4]", "value": "> 50", "unit": "%"}, {"measurement": "IC50", "setting": "[5]", "value": 21, "unit": "µM"}]}
